Patent publication US20230407243A1, “GENETIC PLATFORM TO INVESTIGATE THE FUNCTIONS OF BACTERIAL DRUG EFFLUX PUMPS” (priority 2022, published 2023)
Read-outs that look alike come from different tables or passages of the source.

Tests used:
Assay type in all cases: cell-based, Escherichia coli
[1] = tested on: EKO-35
Procedure: (§1) Synergy measurement using checkerboard analysis was performed in 96-well microtiter plates using the microdilution broth method, according to CLSI guidelines (Patel J. B., 2015). The cell inocula were prepared using the colony resuspension method. The minimum inhibitory concentrations (MICs) were defined as the lowest concentration that provided no growth, as determined by measurement of the OD600nm using a Synergy H1 microplate reader (BioTek). Susceptibility testing was performed in MHB II with a final volume of 100 μL. PAI3N (Bachem Americas) was solubilized in MHB II. […] Solvent controls were included in each plate.
(§2) The Fractional Inhibitory Concentration Index (FICI) was used to assess the synergy of PAI3N in combination with different antibiotics. The FICI represents the ΣFIC of each drug. The FICI for each drug was calculated using the following formula: FICI=FICA+FICB=(CA/MICA)+(CB/MICB). Where MICA and MICB are the MICs of drugs A (PAI3N/NMP) and B (antibiotic) alone, and CA and CB are the MICs of the drugs in combination. The effects of PAβN or NMP in combination with antibiotics were classified as: synergistic (FICI<0.5), additive (FICI>0.5-1.0), indifferent (FICI>1.0-2.0), and antagonistic (FICI>2.0). Fold increases in resistance provided by efflux pumps were calculated by dividing the MIC values of strains expressing efflux pumps by the MIC value of EKO-35.

[2] = tested on: EKO-35 acrBD408A
Procedure: as §1, §2

[3] = tested on: ΔtolC-Pore
Procedure: as §1, §2

[4] = tested on: wild-type E. coli K-12
Procedure: as §1, §2

[5] = tested on: ΔtolC
Procedure: as §1, §2

[6] = tested on: wild-type K-12-Pore; assay: Checkerboard synergy (FICI), porinated strain
Procedure: as §1, §2

[7] = tested on: EKO-35 porinated strain expressing acrB; assay: Checkerboard synergy (FICI), porinated strain
Procedure: as §1, §2

[8] = tested on: EKO-35-Pore; assay: Checkerboard synergy (FICI), porinated strain
Procedure: as §1, §2

[9] = tested on: EKO-35-Pore acrBD408A (functionally inactive AcrB variant); assay: Checkerboard synergy (FICI), porinated strain
Procedure: as §1, §2

[10] = EKO-35 acrBD408A, NMP + antibiotic
[11] = EKO-35 acrBD408A, PAβN + antibiotic
[12] = strain EKO-35 acrBD408A, NMP + antibiotic
[13] = strain ΔtolC Pore, NMP + antibiotic
[14] = strain K-12 Pore, NMP + antibiotic
[15] = EKO-35 acrB Pore, NMP + antibiotic
[16] = EKO-35 acrB Pore, PAβN + antibiotic
[17] = strain EKO-35 acrB Pore, NMP + antibiotic
[18] = porinated efflux-deficient strains
[19] = strain EKO-35 Pore, NMP + antibiotic
[20] = EKO-35 acrBD408A Pore, NMP + antibiotic
[21] = EKO-35 acrBD408A Pore, PAβN + antibiotic
[22] = strain EKO-35 acrBD408A Pore, NMP + antibiotic

CC[C@H]1OC(=O)[C@H](C)[C@@H](O[C@H]2C[C@@](C)(OC)[C@@H](O)[C@H](C)O2)[C@H](C)[C@@H](O[C@@H]2O[C@H](C)C[C@H](N(C)C)[C@H]2O)[C@](C)(O)C[C@@H](C)C(=O)[C@H](C)[C@@H](O)[C@]1(C)O [erythromycin]
Effect ([1]; EKO-35, NMP + antibiotic): Synergistic | Effect ([1]; EKO-35, PAβN + antibiotic): Synergistic | FICI ([1]; EKO-35, PAβN + antibiotic): 0.093 | MICb Alone ([1]; EKO-35, antibiotic alone (PAβN checkerboard)): 2 µg/mL | MICb Combined ([1]; EKO-35, antibiotic in combination with PAβN): 0.06 µg/mL | interaction of NMP in combination with the labelled antibiotic (FICI) ([1]; EKO-35 and EKO-35 acrBD408A): low-level synergy | interaction of PAβN in combination with the labelled antibiotic (FICI) ([1]; efflux-deficient strains EKO-35, EKO-35 acrBD408A, ΔtolC): synergized | Effect ([1]; strain EKO-35, NMP + antibiotic): Synergistic (Synergy (FICI ≤0.5)) | MICb Alone ([1]; strain EKO-35, antibiotic alone): 2 µg/mL | MICb Combined ([1]; strain EKO-35, antibiotic in combination with NMP): 0.25 µg/mL | Effect [2, 10]: Synergistic | FICI [2, 10]: 0.500 | Effect [2, 11]: Synergistic | FICI [2, 11]: 0.190 | MICb Alone ([2]; EKO-35 acrBD408A, antibiotic alone (PAβN checkerboard)): 2 µg/mL | MICb Combined ([2]; EKO-35 acrBD408A, antibiotic in combination with PAβN): 0.13 µg/mL | Effect [2, 12]: Synergistic (Synergy (FICI ≤0.5)) | FICI [2, 12]: 0.500 | MICb Alone ([2]; strain EKO-35 acrBD408A, antibiotic alone): 2 µg/mL | MICb Combined ([2]; strain EKO-35 acrBD408A, antibiotic in combination with NMP): 0.5 µg/mL | Effect [3, 13]: Synergistic (Synergy (FICI ≤0.5)) | FICI [3, 13]: 0.625 | MICb Alone ([3]; strain ΔtolC Pore, antibiotic alone): 4 µg/mL | MICb Combined ([3]; strain ΔtolC Pore, antibiotic in combination with NMP): 0.5 µg/mL | Effect ([3]; ΔtolC Pore, NMP + antibiotic): Synergistic | FICI ([3]; ΔtolC Pore, NMP + antibiotic): 0.625 | Effect ([3]; ΔtolC Pore, PAβN + antibiotic): Synergistic | FICI ([3]; ΔtolC Pore, PAβN + antibiotic): 0.188 | MICb Alone ([3]; ΔtolC Pore, antibiotic alone (PAβN checkerboard)): 1 µg/mL | MICb Combined ([3]; ΔtolC Pore, antibiotic in combination with PAβN): 0.063 µg/mL | Effect ([4]; K-12, NMP + antibiotic): Additive | FICI ([4]; K-12, NMP + antibiotic): 0.625 | Effect ([4]; K-12, PAβN + antibiotic): Synergistic | FICI ([4]; K-12, PAβN + antibiotic): 0.094 | MICb Alone ([4]; K-12, antibiotic alone (PAβN checkerboard)): 64 µg/mL | MICb Combined ([4]; K-12, antibiotic in combination with PAβN): 2 µg/mL | Effect ([4]; strain K-12, NMP + antibiotic): Additive (additive (FICI >0.5-1.0)) | FICI ([4]; strain K-12, NMP + antibiotic): 0.625 | MICb Combined ([4]; strain K-12, antibiotic in combination with NMP): 16 µg/mL | Effect ([5]; strain ΔtolC, NMP + antibiotic): — (indifferent (FICI >1.0)) | FICI ([5]; strain ΔtolC, NMP + antibiotic): 1.000 | MICb Alone ([5]; strain ΔtolC, antibiotic alone): 4 µg/mL | MICb Combined ([5]; strain ΔtolC, antibiotic in combination with NMP): 2 µg/mL | FICI ([5]; ΔtolC, NMP + antibiotic): 1.000 | Effect ([5]; ΔtolC, PAβN + antibiotic): Synergistic | FICI ([5]; ΔtolC, PAβN + antibiotic): 0.188 | MICb Alone ([5]; ΔtolC, antibiotic alone (PAβN checkerboard)): 4 µg/mL | MICb Combined ([5]; ΔtolC, antibiotic in combination with PAβN): 0.25 µg/mL | FICI ([6]; K-12 Pore, NMP + antibiotic): 1.000 | Effect ([6]; K-12 Pore, PAβN + antibiotic): Synergistic | MICb Alone ([6]; K-12 Pore, antibiotic alone (PAβN checkerboard)): 4 µg/mL | MICb Combined ([6]; K-12 Pore, antibiotic in combination with PAβN): 0.25 µg/mL | Effect [6, 14]: — (indifferent (FICI >1.0)) | FICI [6, 14]: 1.000 | MICb Alone ([6]; strain K-12 Pore, antibiotic alone): 16 µg/mL | MICb Combined ([6]; strain K-12 Pore, antibiotic in combination with NMP): 8 µg/mL | Effect [7, 15]: Additive | FICI [7, 15]: 0.563 | Effect [7, 16]: Synergistic | FICI [7, 16]: 0.078 | MICb Alone ([7]; EKO-35 acrB Pore, antibiotic alone (PAβN checkerboard)): 32 µg/mL | MICb Combined ([7]; EKO-35 acrB Pore, antibiotic in combination with PAβN): 0.5 µg/mL | Effect [7, 17]: Additive (additive (FICI >0.5-1.0)) | FICI [7, 17]: 0.563 | MICb Alone ([7]; strain EKO-35 acrB Pore, antibiotic alone): 8 µg/mL | MICb Combined ([7]; strain EKO-35 acrB Pore, antibiotic in combination with NMP): 0.5 µg/mL | Effect ([8]; EKO-35 Pore, NMP + antibiotic): Additive | FICI ([8]; EKO-35 Pore, NMP + antibiotic): 0.770 | Effect ([8]; EKO-35 Pore, PAβN + antibiotic): Additive | FICI ([8]; EKO-35 Pore, PAβN + antibiotic): 0.610 | MICb Alone ([8]; EKO-35 Pore, antibiotic alone (PAβN checkerboard)): 0.13 µg/mL | MICb Combined ([8]; EKO-35 Pore, antibiotic in combination with PAβN): 0.063 µg/mL | interaction of NMP in combination with the labelled antibiotic (FICI) [8, 18]: no longer synergistic | interaction of PAβN in combination with the labelled antibiotic (FICI) [8, 18]: no longer synergistic | Effect [8, 19]: Additive (additive (FICI >0.5-1.0)) | FICI [8, 19]: 0.770 | MICb Alone ([8]; strain EKO-35 Pore, antibiotic alone): 0.25 µg/mL | MICb Combined ([8]; strain EKO-35 Pore, antibiotic in combination with NMP): 0.13 µg/mL | Effect [9, 20]: Additive | FICI [9, 20]: 0.735 | Effect [9, 21]: Additive | FICI [9, 21]: 0.735 | MICb Alone ([9]; EKO-35 acrBD408A Pore, antibiotic alone (PAβN checkerboard)): 0.13 µg/mL | MICb Combined ([9]; EKO-35 acrBD408A Pore, antibiotic in combination with PAβN): 0.063 µg/mL | Effect [9, 22]: Additive (additive (FICI >0.5-1.0)) | FICI [9, 22]: 0.735 | MICb Alone ([9]; strain EKO-35 acrBD408A Pore, antibiotic alone): 0.13 µg/mL | MICb Combined ([9]; strain EKO-35 acrBD408A Pore, antibiotic in combination with NMP): 0.063 µg/mL
